Source: PubChem BioAssay (NCI)
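Test compounds were applied to cells in 96-well plates for 48 hours at 5 doses. GI50 = concentration required for 50% inhibition of growth. Definition used: TGI = concentration required for complete inhibition of growth.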

Tests used:
Assay in all cases: NCI-60 cell line screen, 48 h
HCT-116 colon = system: HCT-116 colon
OVCAR-8 ovarian = system: OVCAR-8 ovarian
T-47D breast = system: T-47D breast
MALME-3M melanoma = system: MALME-3M melanoma
HCT-15 colon = system: HCT-15 colon
SF-268 CNS = system: SF-268 CNS
NCI-H522 lung = system: NCI-H522 lung
KM12 colon = system: KM12 colon
LOX IMVI melanoma = system: LOX IMVI melanoma
UACC-257 melanoma = system: UACC-257 melanoma
M14 melanoma = system: M14 melanoma
BT-549 breast = system: BT-549 breast
MDA-MB-231 breast = system: MDA-MB-231 breast
OVCAR-3 ovarian = system: OVCAR-3 ovarian
HOP-92 NSCLC = system: HOP-92 NSCLC
SF-295 CNS = system: SF-295 CNS
A498 renal = system: A498 renal
786-0 renal = system: 786-0 renal
COLO 205 colon = system: COLO 205 colon
HCC-2998 colon = system: HCC-2998 colon
CAKI-1 renal = system: CAKI-1 renal
HT29 colon = system: HT29 colon
UO-31 renal = system: UO-31 renal
NCI-H226 lung = system: NCI-H226 lung
SF-539 CNS = system: SF-539 CNS
IGROV1 ovarian = system: IGROV1 ovarian
NCI/ADR-RES ovarian = system: NCI/ADR-RES ovarian
SK-MEL-2 melanoma = system: SK-MEL-2 melanoma
PC-3 prostate = system: PC-3 prostate
SK-MEL-5 melanoma = system: SK-MEL-5 melanoma
U251 CNS = system: U251 CNS
SK-MEL-28 melanoma = system: SK-MEL-28 melanoma
SN12C renal = system: SN12C renal
SNB-75 CNS = system: SNB-75 CNS
K-562 leukemia = system: K-562 leukemia
SNB-19 CNS = system: SNB-19 CNS
SR leukemia = system: SR leukemia
SW-620 colon = system: SW-620 colon
A549 NSCLC = system: A549 NSCLC
OVCAR-4 ovarian = system: OVCAR-4 ovarian
SK-OV-3 ovarian = system: SK-OV-3 ovarian
TK-10 renal = system: TK-10 renal
EKVX NSCLC = system: EKVX NSCLC
HOP-62 NSCLC = system: HOP-62 NSCLC
ACHN renal = system: ACHN renal
OVCAR-5 ovarian = system: OVCAR-5 ovarian
HS 578T breast = system: HS 578T breast
UACC-62 melanoma = system: UACC-62 melanoma
NCI-H23 lung = system: NCI-H23 lung
DU-145 prostate = system: DU-145 prostate
RXF 393 renal = system: RXF 393 renal
MDA-MB-435 = system: MDA-MB-435

Q: Which GI50 (HCT-116 colon) does the source give for O=C1c2ccn(CCCCN3CCC(O)CC3)c2C(=O)c2c1c(O)c1ccccc1c2O here?
A: 1.84 µM

Q: And the GI50 (OVCAR-8 ovarian)?
A: 25.6 µM

Q: And the TGI (OVCAR-8 ovarian)?
A: 75.3 µM

Q: And the GI50 (T-47D breast)?
A: > 46 µM

Q: What about the TGI (T-47D breast) of the same compound?
A: > 67.6 µM

Q: And the GI50 (MALME-3M melanoma)?
A: 16.5 µM

Q: And the TGI (MALME-3M melanoma)?
A: 41.8 µM

Q: And the GI50 (HCT-15 colon)?
A: 2.68 µM

Q: What about the TGI (HCT-15 colon) of the same compound?
A: 8.83 µM

Q: What about the GI50 (SF-268 CNS) of the same compound?
A: 17.8 µM

Q: And the TGI (SF-268 CNS)?
A: > 74.3 µM

Q: And the GI50 (NCI-H522 lung)?
A: 2.86 µM

Q: And the TGI (NCI-H522 lung)?
A: 14.4 µM

Q: And the GI50 (KM12 colon)?
A: 1.96 µM

Q: What about the TGI (KM12 colon) of the same compound?
A: 5.2 µM

Q: And the GI50 (LOX IMVI melanoma)?
A: 8.04 µM

Q: And the GI50 (UACC-257 melanoma)?
A: 17.3 µM

Q: And the TGI (UACC-257 melanoma)?
A: > 64.1 µM

Q: What about the GI50 (M14 melanoma) of the same compound?
A: 1.95 µM

Q: And the TGI (M14 melanoma)?
A: 3.69 µM

Q: What about the GI50 (BT-549 breast) of the same compound?
A: 13.2 µM

Q: What about the TGI (BT-549 breast) of the same compound?
A: 51.6 µM

Q: And the GI50 (MDA-MB-231 breast)?
A: 13.3 µM

Q: What about the TGI (MDA-MB-231 breast) of the same compound?
A: 38.3 µM

Q: And the GI50 (OVCAR-3 ovarian)?
A: 2.24 µM

Q: And the TGI (OVCAR-3 ovarian)?
A: 4.95 µM

Q: And the GI50 (HOP-92 NSCLC)?
A: 8.95 µM

Q: What about the TGI (HOP-92 NSCLC) of the same compound?
A: 41.1 µM

Q: What about the GI50 (SF-295 CNS) of the same compound?
A: 3.25 µM

Q: What about the TGI (SF-295 CNS) of the same compound?
A: 9.69 µM

Q: What about the GI50 (A498 renal) of the same compound?
A: 23.7 µM

Q: What about the TGI (A498 renal) of the same compound?
A: 55.4 µM

Q: What about the GI50 (786-0 renal) of the same compound?
A: 13.1 µM

Q: What about the TGI (786-0 renal) of the same compound?
A: 31.1 µM

Q: What about the GI50 (COLO 205 colon) of the same compound?
A: 37.2 µM

Q: What about the TGI (COLO 205 colon) of the same compound?
A: > 66.2 µM

Q: And the GI50 (HCC-2998 colon)?
A: 20.6 µM

Q: And the TGI (HCC-2998 colon)?
A: > 59.5 µM

Q: And the GI50 (CAKI-1 renal)?
A: 13.9 µM

Q: What about the TGI (CAKI-1 renal) of the same compound?
A: 43.7 µM

Q: What about the GI50 (HT29 colon) of the same compound?
A: 46.9 µM

Q: And the TGI (HT29 colon)?
A: > 100 µM

Q: What about the GI50 (UO-31 renal) of the same compound?
A: 2.4 µM

Q: What about the TGI (UO-31 renal) of the same compound?
A: 11.9 µM

Q: What about the GI50 (NCI-H226 lung) of the same compound?
A: 23.7 µM

Q: What about the TGI (NCI-H226 lung) of the same compound?
A: 60.2 µM

Q: And the GI50 (SF-539 CNS)?
A: 43.8 µM

Q: What about the TGI (SF-539 CNS) of the same compound?
A: > 100 µM

Q: What about the GI50 (IGROV1 ovarian) of the same compound?
A: 2.53 µM

Q: And the TGI (IGROV1 ovarian)?
A: > 100 µM

Q: What about the GI50 (NCI/ADR-RES ovarian) of the same compound?
A: 78.8 µM

Q: What about the TGI (NCI/ADR-RES ovarian) of the same compound?
A: > 100 µM

Q: And the GI50 (SK-MEL-2 melanoma)?
A: 2.45 µM

Q: And the TGI (SK-MEL-2 melanoma)?
A: 8.32 µM

Q: And the GI50 (PC-3 prostate)?
A: 1.35 µM

Q: What about the TGI (PC-3 prostate) of the same compound?
A: 3.16 µM

Q: What about the GI50 (SK-MEL-5 melanoma) of the same compound?
A: 16.6 µM

Q: And the TGI (SK-MEL-5 melanoma)?
A: 96.2 µM

Q: And the GI50 (U251 CNS)?
A: 15.4 µM

Q: What about the TGI (U251 CNS) of the same compound?
A: 43.4 µM

Q: And the GI50 (SK-MEL-28 melanoma)?
A: 13.3 µM

Q: What about the TGI (SK-MEL-28 melanoma) of the same compound?
A: > 41 µM

Q: What about the GI50 (SN12C renal) of the same compound?
A: 15.2 µM

Q: And the TGI (SN12C renal)?
A: 34.9 µM

Q: And the GI50 (SNB-75 CNS)?
A: 42.6 µM

Q: What about the TGI (SNB-75 CNS) of the same compound?
A: > 61.2 µM

Q: What about the GI50 (K-562 leukemia) of the same compound?
A: 1.77 µM

Q: And the TGI (K-562 leukemia)?
A: > 100 µM

Q: What about the GI50 (SNB-19 CNS) of the same compound?
A: > 52.2 µM

Q: What about the TGI (SNB-19 CNS) of the same compound?
A: > 86.9 µM

Q: What about the GI50 (SR leukemia) of the same compound?
A: > 100 µM

Q: What about the TGI (SR leukemia) of the same compound?
A: > 100 µM

Q: And the GI50 (SW-620 colon)?
A: 4.48 µM

Q: What about the TGI (SW-620 colon) of the same compound?
A: > 100 µM

Q: What about the GI50 (A549 NSCLC) of the same compound?
A: 26.2 µM

Q: What about the TGI (A549 NSCLC) of the same compound?
A: 68.9 µM

Q: What about the GI50 (OVCAR-4 ovarian) of the same compound?
A: 17.9 µM

Q: What about the TGI (OVCAR-4 ovarian) of the same compound?
A: > 64.4 µM

Q: And the GI50 (SK-OV-3 ovarian)?
A: 41.3 µM

Q: What about the TGI (SK-OV-3 ovarian) of the same compound?
A: > 74.6 µM

Q: What about the GI50 (TK-10 renal) of the same compound?
A: 1.65 µM

Q: What about the TGI (TK-10 renal) of the same compound?
A: 3.36 µM

Q: And the GI50 (EKVX NSCLC)?
A: 14.5 µM

Q: And the TGI (EKVX NSCLC)?
A: 46.5 µM

Q: What about the GI50 (HOP-62 NSCLC) of the same compound?
A: 16.3 µM

Q: And the TGI (HOP-62 NSCLC)?
A: 34.9 µM

Q: What about the GI50 (ACHN renal) of the same compound?
A: 15.2 µM

Q: And the TGI (ACHN renal)?
A: 32.8 µM

Q: And the GI50 (OVCAR-5 ovarian)?
A: 33.4 µM

Q: What about the TGI (OVCAR-5 ovarian) of the same compound?
A: > 66.8 µM

Q: What about the GI50 (HS 578T breast) of the same compound?
A: 29.2 µM

Q: And the TGI (HS 578T breast)?
A: > 83.8 µM

Q: What about the GI50 (UACC-62 melanoma) of the same compound?
A: 2.13 µM

Q: What about the TGI (UACC-62 melanoma) of the same compound?
A: 5.36 µM

Q: What about the GI50 (NCI-H23 lung) of the same compound?
A: 1.97 µM

Q: And the TGI (NCI-H23 lung)?
A: 3.84 µM

Q: And the GI50 (DU-145 prostate)?
A: 7.98 µM

Q: Which results are given for N=C(N)c1ccc(-c2ccc(-c3ccc(F)cc3)s2)s1?
A: GI50 (UACC-257 melanoma): 2.19 µM; TGI (UACC-257 melanoma): 4.15 µM; GI50 (M14 melanoma): 1.89 µM; TGI (M14 melanoma): 3.4 µM; GI50 (A498 renal): 1.95 µM; TGI (A498 renal): 4.65 µM; GI50 (CAKI-1 renal): 1.68 µM; TGI (CAKI-1 renal): 3.08 µM; GI50 (RXF 393 renal): 1.75 µM; TGI (RXF 393 renal): 3.34 µM; GI50 (NCI-H226 lung): 14.2 µM; TGI (NCI-H226 lung): 54.2 µM; GI50 (SK-MEL-5 melanoma): 1.81 µM; TGI (SK-MEL-5 melanoma): 3.2 µM; GI50 (MDA-MB-435): 1.59 µM; TGI (MDA-MB-435): 2.93 µM; GI50 (SK-OV-3 ovarian): 1.8 µM; TGI (SK-OV-3 ovarian): 3.57 µM; GI50 (TK-10 renal): 1.72 µM; TGI (TK-10 renal): 3.14 µM; GI50 (HS 578T breast): 2.19 µM; TGI (HS 578T breast): 4.85 µM; GI50 (DU-145 prostate): 1.72 µM; TGI (DU-145 prostate): 3.19 µM
